Test results as given in patent US11766425B2, “Antibiotic combination therapies” (BIOVERSYS AG, priority 2019, dated 2023).
Like-named read-outs stand apart in the source and are kept apart here.

What was measured:
Type in all cases: cell-based, Acinetobacter baumannii
A. baumannii 401046-18 = test: broth microdilution checkerboard MIC/synergy; settings: for MIC: Acinetobacter baumannii, 40104618, strain 401046-18, read-out: MICs alone
Experimental: (§1) Checkerboards were performed according to the CLSI parameters used for microbroth dilution MIC5. CA-MHB, iron-depleted CA-MHB (ID-CA-MHB) or RPMI supplemented with 10% FCS medium were used as specified and ID-CA-MHB was prepared according to CLSI guidelines. […] FICI is calculated as follows: […]

A. baumannii 401255-18 = test: broth microdilution checkerboard MIC/synergy; settings: for MIC: Acinetobacter baumannii, 40125518, strain 401255-18, read-out: MICs alone
Experimental: as §1

A. baumannii 402292-17 = test: broth microdilution checkerboard MIC/synergy; settings: for MIC: Acinetobacter baumannii, 40229217, strain 402292-17, read-out: MICs alone
Experimental: as §1

A. baumannii 402608-17 = test: broth microdilution checkerboard MIC/synergy; settings: for MIC: Acinetobacter baumannii, 40260817, strain 402608-17, read-out: MICs alone
Experimental: as §1

A. baumannii ACC00535 = test: broth microdilution checkerboard MIC/synergy; settings: strain ACC00535; rifabutin/SPR741 in combination
Experimental: as §1

A. baumannii HUMC1 = test: broth microdilution checkerboard MIC/synergy; settings: strain HUMC1
Experimental: as §1

A. baumannii IHMA1013816 = test: broth microdilution checkerboard MIC/synergy; settings: strain IHMA1013816
Experimental: as §1

A. baumannii IHMA690517 = test: broth microdilution checkerboard MIC/synergy; settings: strain IHMA690517
Experimental: as §1

A. baumannii IHMA863866 = test: broth microdilution checkerboard MIC/synergy; settings: strain IHMA863866
Experimental: as §1

A. baumannii IHMA867231 = test: broth microdilution checkerboard MIC/synergy; settings: for MIC: Acinetobacter baumannii, IHMA867231, strain IHMA867231, read-out: MICs alone
Experimental: as §1

A. baumannii IHMA919656 = test: broth microdilution checkerboard MIC/synergy; settings: strain IHMA919656
Experimental: as §1

A. baumannii UNT087-1 = test: broth microdilution checkerboard MIC/synergy
Experimental: as §1

A. baumannii UNT091-1 = test: broth microdilution checkerboard MIC/synergy
Experimental: as §1

A. baumannii UNT191-1 = test: broth microdilution checkerboard MIC/synergy
Experimental: as §1

A. baumannii UNT238-1 = test: broth microdilution checkerboard MIC/synergy; settings: strain UNT238-1
Experimental: as §1

A. baumannii UNT239-1 = test: broth microdilution checkerboard MIC/synergy; settings: strain UNT239-1
Experimental: as §1

[1] = system: A. baumannii LAC-4 strain; test: broth microdilution checkerboard MIC/synergy; settings: strain LAC-4
Experimental: as §1
The checkerboards were performed in CA-MHB or ID-CA-MHB for cefiderocol.

[2] = system: panel of MDR clinical isolates of A. baumannii
Experimental: as §1

[3] = antibiotic alone, rifabutin/colistin checkerboard, CA-MHB
[4] = rifabutin alone, rifabutin/SPR741 checkerboard
[5] = antibiotic alone, rifabutin/cefiderocol checkerboard
[6] = rifabutin/SPR741 in combination
[7] = rifabutin/cefiderocol in combination
[8] = rifabutin/colistin in combination, CA-MHB
[9] = rifabutin/cefiderocol in combination, ID-CA-MHB

Compound: CO[C@H]1/C=C/O[C@@]2(C)Oc3c(C)c(O)c4c(c3C2=O)C2=NC3(CCN(CC(C)C)CC3)NC2=C(NC(=O)/C(C)=C\C=C\[C@H](C)[C@H](O)[C@@H](C)[C@@H](O)[C@@H](C)[C@H](OC(C)=O)[C@@H]1C)C4=O [Rifabutin, rifabutin]
- MIC (A. baumannii 401046-18; antibiotic alone, rifabutin/cefiderocol checkerboard, ID-CA-MHB): 32 µg/mL
- MIC (A. baumannii 401046-18; [3]): 64 µg/mL
- MIC (A. baumannii 401046-18; [4]): > 32 µg/mL
- MICs combi / in combination (A. baumannii 401046-18; strain 401046-18, rifabutin/SPR741 in combination): 2 mg/L
- MICs combi (A. baumannii 401046-18; strain 401046-18, rifabutin/cefiderocol in combination, ID-CA-MHB): 16 mg/L
- MICs combi (A. baumannii 401046-18; strain 401046-18, rifabutin/colistin in combination, CA-MHB): 1 mg/L
- MIC (A. baumannii 401255-18; [5]): 32 µg/mL
- MIC (A. baumannii 401255-18; [3]): 128 µg/mL
- MIC (A. baumannii 401255-18; [4]): > 32 µg/mL
- MICs combi / in combination (A. baumannii 401255-18; strain 401255-18, rifabutin/SPR741 in combination): 2 mg/L
- MICs combi (A. baumannii 401255-18; strain 401255-18, rifabutin/cefiderocol in combination): 16 mg/L
- MICs combi (A. baumannii 401255-18; strain 401255-18, rifabutin/colistin in combination, CA-MHB): 2 mg/L
- MIC (A. baumannii 402292-17; [5]): > 128 µg/mL
- MIC (A. baumannii 402292-17; [3]): > 128 µg/mL
- MIC (A. baumannii 402292-17; [4]): > 32 µg/mL
- MICs combi / in combination (A. baumannii 402292-17; strain 402292-17, rifabutin/SPR741 in combination): 2 mg/L
- MICs combi (A. baumannii 402292-17; strain 402292-17, rifabutin/cefiderocol in combination): 128 mg/L
- MICs combi (A. baumannii 402292-17; strain 402292-17, rifabutin/colistin in combination, CA-MHB): 4 mg/L
- MIC (A. baumannii 402608-17; [5]): 128 µg/mL
- MIC (A. baumannii 402608-17; [3]): 128 µg/mL
- MIC (A. baumannii 402608-17; [4]): > 32 µg/mL
- MICs combi / in combination (A. baumannii 402608-17; strain 402608-17, rifabutin/SPR741 in combination): 2 mg/L
- MICs combi (A. baumannii 402608-17; strain 402608-17, rifabutin/cefiderocol in combination): 32 mg/L
- MICs combi (A. baumannii 402608-17; strain 402608-17, rifabutin/colistin in combination, CA-MHB): 2 mg/L
- MICs combi / in combination (A. baumannii ACC00535): 0.5 mg/L
- MICs alone (A. baumannii HUMC1; [3]): 4 mg/L
- MICs alone (A. baumannii HUMC1; [4]): 4 mg/L
- MICs combi / in combination (A. baumannii HUMC1; [6]): 0.25 mg/L
- MICs combi (A. baumannii HUMC1; [7]): 4 mg/L
- MICs combi (A. baumannii HUMC1; [8]): 0.125 mg/L
- MICs combi / in combination (A. baumannii IHMA1013816; [6]): 2 mg/L
- MICs combi (A. baumannii IHMA1013816; [7]): 4 mg/L
- MICs combi (A. baumannii IHMA1013816; [8]): 0.125 mg/L
- MICs combi / in combination (A. baumannii IHMA690517; [6]): 1 mg/L
- MICs combi (A. baumannii IHMA690517; [7]): 4 mg/L
- MICs combi (A. baumannii IHMA690517; [8]): 0.06 mg/L
- MICs alone (A. baumannii IHMA863866; [3]): 4 mg/L
- MICs alone (A. baumannii IHMA863866; [4]): 4 mg/L
- MICs combi / in combination (A. baumannii IHMA863866; [6]): 2 mg/L
- MICs combi (A. baumannii IHMA863866; [7]): 0.125 mg/L
- MICs combi (A. baumannii IHMA863866; [8]): 0.06 mg/L
- MIC (A. baumannii IHMA867231; [5]): > 128 µg/mL
- MIC (A. baumannii IHMA867231; [3]): > 128 µg/mL
- MIC (A. baumannii IHMA867231; [4]): > 32 µg/mL
- MICs combi / in combination (A. baumannii IHMA867231; strain IHMA867231, rifabutin/SPR741 in combination): >32 mg/L
- MICs combi (A. baumannii IHMA867231; strain IHMA867231, rifabutin/cefiderocol in combination): 128 mg/L
- MICs combi (A. baumannii IHMA867231; strain IHMA867231, rifabutin/colistin in combination, CA-MHB): 2 mg/L
- MICs combi / in combination (A. baumannii IHMA919656; [6]): 1 mg/L
- MICs combi (A. baumannii IHMA919656; [7]): 4 mg/L
- MICs combi (A. baumannii IHMA919656; [8]): 0.03 mg/L
- MIC (A. baumannii UNT087-1; Acinetobacter baumannii, UNT0871, strain UNT087-1, antibiotic alone, rifabutin/colistin checkerboard, CA-MHB, read-out: MICs alone): 16 µg/mL
- MICs combi / in combination (A. baumannii UNT087-1; strain UNT087-1, rifabutin/SPR741 in combination): 0.25 mg/L
- MICs combi (A. baumannii UNT087-1; strain UNT087-1, rifabutin/cefiderocol in combination): 4 mg/L
- MICs combi (A. baumannii UNT087-1; strain UNT087-1, rifabutin/colistin in combination, CA-MHB): 0.5 mg/L
- MIC (A. baumannii UNT091-1; Acinetobacter baumannii, UNT0911, strain UNT091-1, rifabutin alone, rifabutin/SPR741 checkerboard, read-out: MICs alone): 0.25 µg/mL
- MICs combi / in combination (A. baumannii UNT091-1; strain UNT091-1, rifabutin/SPR741 in combination): 0.06 mg/L
- MICs combi (A. baumannii UNT091-1; strain UNT091-1, rifabutin/cefiderocol in combination): 2 mg/L
- MICs combi (A. baumannii UNT091-1; strain UNT091-1, rifabutin/colistin in combination, CA-MHB): <0.03 mg/L
- MIC (A. baumannii UNT191-1; Acinetobacter baumannii, UNT1911, strain UNT191-1, antibiotic alone, rifabutin/colistin checkerboard, CA-MHB, read-out: MICs alone): 16 µg/mL
- MICs combi / in combination (A. baumannii UNT191-1; strain UNT191-1, rifabutin/SPR741 in combination): 0.5 mg/L
- MICs combi (A. baumannii UNT191-1; strain UNT191-1, rifabutin/cefiderocol in combination, ID-CA-MHB): 0.5 mg/L
- MICs combi (A. baumannii UNT191-1; strain UNT191-1, rifabutin/colistin in combination, CA-MHB): <0.03 mg/L
- MICs combi / in combination (A. baumannii UNT238-1; [6]): 0.125 mg/L
- MICs combi (A. baumannii UNT238-1; [9]): 4 mg/L
- MICs combi (A. baumannii UNT238-1; [8]): 2 mg/L
- MICs alone (A. baumannii UNT239-1; [3]): 4 mg/L
- MICs alone (A. baumannii UNT239-1; [4]): 4 mg/L
- MICs combi / in combination (A. baumannii UNT239-1; [6]): 0.25 mg/L
- MICs combi (A. baumannii UNT239-1; [9]): 1 mg/L
- MICs combi (A. baumannii UNT239-1; [8]): 1 mg/L
- MICs alone [1, 3]: 4 mg/L
- MICs alone [1, 4]: 4 mg/L
- MICs combi / in combination [1, 6]: 0.06 mg/L
- MICs combi [1, 9]: 1 mg/L
- MICs combi [1, 8]: 0.016 mg/L
- rifabutin combination MICs ([2]; in combination with SPR741, most of the strains): 0.125 to 2 mg/L
- shift in rifabutin MIC ([2]; in combination with colistin, isolates with a mutation in the rpoB gene): ≥ 32 fold
